Test results published in ChEMBL document CHEMBL2073908, “The effect of rifampin treatment on intestinal expression of human MRP transporters” (Am J Pathol, 2000).

Experiments:
[1] = target: T1, ATP-binding cassette sub-family C member 2 (Homo sapiens, UniProt Q92887); experiment: TP_TRANSPORTER: Immunohistochemistry in vivo, apical membrane of enterocytes; format: functional, organism-based, Enterocyte apical membrane
[2] = target: T1, ATP-binding cassette sub-family C member 2; experiment: TP_TRANSPORTER: Northern blot in vivo, apical membrane of enterocyte; format: functional, organism-based

T1 sequence (Q92887 whole entry): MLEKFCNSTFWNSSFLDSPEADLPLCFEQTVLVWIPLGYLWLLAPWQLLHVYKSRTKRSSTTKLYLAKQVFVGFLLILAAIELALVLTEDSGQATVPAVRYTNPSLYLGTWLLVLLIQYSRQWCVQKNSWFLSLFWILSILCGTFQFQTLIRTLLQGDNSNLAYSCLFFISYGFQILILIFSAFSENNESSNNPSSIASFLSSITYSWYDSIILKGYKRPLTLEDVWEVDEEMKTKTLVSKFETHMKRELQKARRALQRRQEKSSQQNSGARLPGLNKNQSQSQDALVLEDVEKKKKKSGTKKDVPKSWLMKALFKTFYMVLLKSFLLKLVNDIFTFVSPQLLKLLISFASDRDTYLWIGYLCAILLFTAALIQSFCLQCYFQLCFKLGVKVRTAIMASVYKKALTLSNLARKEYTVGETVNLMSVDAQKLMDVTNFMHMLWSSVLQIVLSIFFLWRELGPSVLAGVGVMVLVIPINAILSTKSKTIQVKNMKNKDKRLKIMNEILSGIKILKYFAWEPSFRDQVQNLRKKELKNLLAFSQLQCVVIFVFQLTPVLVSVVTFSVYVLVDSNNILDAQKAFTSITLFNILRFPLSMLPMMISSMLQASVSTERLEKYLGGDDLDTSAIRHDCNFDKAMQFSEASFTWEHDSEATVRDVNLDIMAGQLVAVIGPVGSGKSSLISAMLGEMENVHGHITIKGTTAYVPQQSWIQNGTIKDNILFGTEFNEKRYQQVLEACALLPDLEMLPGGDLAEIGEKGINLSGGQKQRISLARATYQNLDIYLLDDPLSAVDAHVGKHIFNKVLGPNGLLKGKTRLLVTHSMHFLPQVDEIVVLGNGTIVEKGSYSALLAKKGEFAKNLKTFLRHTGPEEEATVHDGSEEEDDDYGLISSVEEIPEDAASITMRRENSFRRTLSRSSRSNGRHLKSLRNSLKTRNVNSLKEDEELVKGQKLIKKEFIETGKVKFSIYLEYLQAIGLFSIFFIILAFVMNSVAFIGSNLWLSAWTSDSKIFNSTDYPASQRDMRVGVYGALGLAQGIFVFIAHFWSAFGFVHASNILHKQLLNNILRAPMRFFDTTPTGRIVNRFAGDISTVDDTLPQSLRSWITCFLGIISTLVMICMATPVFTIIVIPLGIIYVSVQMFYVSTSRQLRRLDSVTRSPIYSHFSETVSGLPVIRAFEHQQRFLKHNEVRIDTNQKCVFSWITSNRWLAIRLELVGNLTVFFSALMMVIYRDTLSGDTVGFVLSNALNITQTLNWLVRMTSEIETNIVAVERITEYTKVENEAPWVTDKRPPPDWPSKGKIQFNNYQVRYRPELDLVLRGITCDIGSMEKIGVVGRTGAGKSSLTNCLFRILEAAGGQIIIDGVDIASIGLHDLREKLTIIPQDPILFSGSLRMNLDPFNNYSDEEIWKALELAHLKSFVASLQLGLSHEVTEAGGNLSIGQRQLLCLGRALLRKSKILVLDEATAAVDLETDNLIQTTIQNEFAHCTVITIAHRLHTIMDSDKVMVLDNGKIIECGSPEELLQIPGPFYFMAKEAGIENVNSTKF

Activity [1]: inducer [+]
Activity [2]: inducer [+]
Structure (SMILES): CO[C@H]1/C=C/O[C@@]2(C)Oc3c(C)c(O)c4c(O)c(c(/C=N/N5CCN(C)CC5)c(O)c4c3C2=O)NC(=O)/C(C)=C\C=C\[C@H](C)[C@H](O)[C@@H](C)[C@@H](O)[C@@H](C)[C@H](OC(C)=O)[C@@H]1C [RIFAMPIN]
